Values joined by “and” are separate entries in the source; they are usually repeats but may differ in a detail not shown here. Identical values can stand only once. Like-named read-outs stand apart in the source and are kept apart here.
What was measured:
Experiment in all cases: MIC of compounds alone and combined with antibacterials, broth microdilution (CLSI)
Assay type in all cases: cell-based
[1] = tested on: Morganella morganii (MMO) isolates
Outline: (§1)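 Broth microdilution in cation-adjusted Mueller-Hinton broth, inoculum 5.10^5 CFU/mL, 16-20 h at 35° C in ambient air, on genotyped isolates. Compound MIC, alone or with an antibacterial, taken visually as lowest concentration preventing growth; antibacterial MIC determined at each compound concentration.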

[2] = tested on: Citrobacter koseri (CKR) isolates
Outline: as §1

[3] = tested on: Enterobacter aerogenes (EAE) isolates
Outline: as §1

[4] = tested on: Escherichia coli (ECO) isolates
Outline: as §1

CC1(C)S[C@@H]2[C@H](NC(=O)[C@H](N)c3ccc(O)cc3)C(=O)N2[C@H]1C(=O)O [AMX, Amoxicillin]
MIC [1]: >128 µg/mL
MIC ATB in combination [1]: >128 µg/mL
MIC ([1]; strain MMO 200321, genotype TEM-1, CTX-M-15, OXA-1): >256 µg/mL
MIC ([1]; strain MMO UFR144, genotype TEM-1, CTX-M-15): >128 µg/mL
MIC ([1]; strain MMO UFR240, genotype CTX-M-9): >128 µg/mL
MIC ([1]; strain MMO UFR241, genotype TEM-1, CTX-M-15): >128 µg/mL
MIC ([1]; strain MMO UFR242, genotype TEM-52): >128 µg/mL
MIC ATB in combination [2]: >128 µg/mL
MIC ATB in combination ([2]; CKO ROU, AF2 @ 8 μg/mL): 8 µg/mL
MIC ([2]; strain CKO ROU, genotype TEM-1, SHV-12, CTX-M-15, OXA-1, OXA-48): >256 µg/mL
MIC ([2]; strain CKO UFR149, genotype OXA-48): >128 µg/mL
MIC ([2]; strain CKO UFR150, genotype TEM-1, OXA-48): >128 µg/mL
MIC ATB in combination ([3]; EAE 49469, AF2 @ 8 μg/mL): <=0.25 μg/mL
MIC ATB in combination ([3]; EAE 49469, CLA @ 4 μg/mL): >128 µg/mL
MIC ATB in combination ([3]; EAE 200261, AF2 @ 8 μg/mL): 16 µg/mL
MIC ATB in combination ([3]; EAE 200261, CLA @ 4 μg/mL): >128 µg/mL
MIC ATB in combination ([3]; EAE UFR199, CLA @ 4 μg/mL): >128 µg/mL
MIC ATB in combination ([3]; EAE UFR201, CLA @ 4 μg/mL): 16 µg/mL
MIC ATB in combination ([3]; EAE UFR202, CLA @ 4 μg/mL): >128 µg/mL
MIC ATB in combination ([3]; EAE UFR207, CLA @ 4 μg/mL): 32 µg/mL
MIC ATB in combination ([3]; EAE UFR213, CLA @ 4 μg/mL): >128 µg/mL
MIC ([3]; strain EAE 49469, genotype AmpC): >1024 µg/mL
MIC ([3]; strain EAE 200261, genotype TEM-x, AmpC): >256 µg/mL
MIC ([3]; strain EAE UFR199, genotype TEM-1b, SHV-12, KPC-2, OXA-9): >128 µg/mL
MIC ([3]; strain EAE UFR201, genotype TEM-1, SHV-12, CTX-M-15): >128 µg/mL
MIC ([3]; strain EAE UFR202, genotype TEM-24): >128 µg/mL
MIC ([3]; strain EAE UFR213, genotype TEM-24): >128 µg/mL
MIC ATB in combination [4]: >128 µg/mL and 128 µg/mL
MIC ATB in combination ([4]; ECO 4133, AF2 @ 8 μg/mL): <0.25 µg/mL
MIC ATB in combination ([4]; ECO 5302, AF2 @ 8 μg/mL): <0.25 µg/mL
MIC ATB in combination ([4]; ECO 131119, AF2 @ 8 μg/mL): <0.25 µg/mL
MIC ATB in combination ([4]; ECO 131119, CLA @ 4 μg/mL): >512 µg/mL
MIC ATB in combination ([4]; ECO 180070, AF2 @ 8 μg/mL): <0.25 µg/mL
MIC ATB in combination ([4]; ECO 180070, CLA @ 4 μg/mL): 16 µg/mL
MIC ATB in combination ([4]; ECO 190314, AF2 @ 8 μg/mL): <0.25 µg/mL
MIC ATB in combination ([4]; ECO 190314, CLA @ 4 μg/mL): 8 µg/mL
MIC ATB in combination ([4]; ECO 190317, AF2 @ 8 μg/mL): <0.25 µg/mL
MIC ATB in combination ([4]; ECO 190317, CLA @ 4 μg/mL): 64 µg/mL
MIC ATB in combination ([4]; ECO 190457, AF2 @ 8 μg/mL): <0.25 µg/mL
MIC ATB in combination ([4]; ECO 190549, AF2 @ 8 μg/mL): <0.25 µg/mL
MIC ATB in combination ([4]; ECO 190549, CLA @ 4 μg/mL): 8 µg/mL
MIC ATB in combination ([4]; ECO 200159, AF2 @ 8 μg/mL): <0.25 µg/mL
MIC ATB in combination ([4]; ECO 200159, CLA @ 4 μg/mL): 8 µg/mL
MIC ATB in combination ([4]; ECO 200259, AF2 @ 8 μg/mL): <0.25 µg/mL
MIC ATB in combination ([4]; ECO 200259, CLA @ 4 μg/mL): 8 µg/mL
MIC ATB in combination ([4]; ECO 200344, AF2 @ 8 μg/mL): <0.25 µg/mL
MIC ATB in combination ([4]; ECO 200344, CLA @ 4 μg/mL): 16 µg/mL
MIC ATB in combination ([4]; ECO 260096, AF2 @ 8 μg/mL): 0.5 µg/mL
MIC ATB in combination ([4]; ECO 260096, CLA @ 4 μg/mL): 4 µg/mL
MIC ATB in combination ([4]; ECO 260304, AF2 @ 8 μg/mL): <0.25 µg/mL
MIC ATB in combination ([4]; ECO 260304, CLA @ 4 μg/mL): 4 µg/mL
MIC ATB in combination ([4]; ECO 260508, AF2 @ 8 μg/mL): <0.25 µg/mL
MIC ATB in combination ([4]; ECO 260508, CLA @ 4 μg/mL): 64 µg/mL
MIC ATB in combination ([4]; ECO RGN238, AF2 @ 8 μg/mL): <0.25 µg/mL
MIC ATB in combination ([4]; ECO UFR15, AF2 @ 8 μg/mL): <0.25 µg/mL
MIC ATB in combination ([4]; ECO UFR16, AF2 @ 8 μg/mL): <0.25 µg/mL
MIC ATB in combination ([4]; ECO UFR18, AF2 @ 8 μg/mL): <0.25 µg/mL
MIC ATB in combination ([4]; ECO UFR19, AF2 @ 8 μg/mL): <0.25 µg/mL
MIC ATB in combination ([4]; ECO UFR32, AF2 @ 8 μg/mL): <0.25 µg/mL
MIC ATB in combination ([4]; ECO UFR39, AF2 @ 8 μg/mL): <0.25 µg/mL
MIC ATB in combination ([4]; ECO UFR41, AF2 @ 8 μg/mL): <0.25 µg/mL
MIC ATB in combination ([4]; ECO UFR45, AF2 @ 8 μg/mL): <0.25 µg/mL
MIC ATB in combination ([4]; ECO UFR61O, AF2 @ 8 μg/mL): 4 µg/mL
MIC ATB in combination ([4]; ECO UFR62, AF2 @ 8 μg/mL): <0.25 µg/mL
MIC ATB in combination ([4]; ECO UFR74, AF2 @ 8 μg/mL): <0.25 µg/mL
MIC ATB in combination ([4]; ECO UFR86, AF2 @ 8 μg/mL): 2 µg/mL
MIC ATB in combination ([4]; ECO UFR86, CLA @ 4 μg/mL): 8 µg/mL
MIC ATB in combination ([4]; ECO UFR209, CLA @ 4 μg/mL): 32 µg/mL
MIC ATB in combination ([4]; ECO UFR210, CLA @ 4 μg/mL): 8 µg/mL
MIC ATB in combination ([4]; ECO UFR211, CLA @ 4 μg/mL): 8 µg/mL
MIC ([4]; strain ECO 4133, genotype TEM-30, OXA-1): >256 µg/mL
MIC ([4]; strain ECO 5302, genotype TEM-1, OXA-1): >256 µg/mL
MIC ([4]; strain ECO 131119, genotype TEM-1, OXA-48): >1024 µg/mL
MIC ([4]; strain ECO 180070, genotype TEM-1, CTX-M-15): >256 µg/mL
MIC ([4]; strain ECO 190314, genotype CTX-M-1): >256 µg/mL
MIC ([4]; strain ECO 190317, genotype TEM-1, SHV-12, CTX-M-15, OXA-1): >1024 µg/mL
MIC ([4]; strain ECO 190457, genotype CTX-M-15, OXA-1): >256 µg/mL
MIC ([4]; strain ECO 190549, genotype CTX-M-1): >256 µg/mL
MIC ([4]; strain ECO 200159, genotype TEM-1, CTX-M-14): >256 µg/mL
MIC ([4]; strain ECO 200259, genotype CTX-M-14): >256 µg/mL
MIC ([4]; strain ECO 200344, genotype CTX-M-1): >256 µg/mL
MIC ([4]; strain ECO 260096, genotype CTX-M-132): >256 µg/mL
MIC ([4]; strain ECO 260304, genotype CTX-M-15): >256 µg/mL
MIC ([4]; strain ECO 260508, genotype TEM-1, CTX-M-15, OXA-1): >256 µg/mL
MIC ([4]; strain ECO RGN238, genotype OXA-1): >1024 µg/mL
MIC ([4]; strain ECO UFR15, genotype TEM-1, OXA-48): >256 µg/mL

Source: US20200017495A1, “NOVEL HETEROCYCLIC COMPOUNDS AND THEIR USE IN PREVENTING OR TREATING BACTERIAL INFECTIONS” (priority 2017, published 2020)
